Experimental data reported in PubChem BioAssay (NCI).
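96-well plates; 48 h exposure; 5 concentrations. Endpoints by linear interpolation between flanking doses. Not reached: highest tested concentration assigned. Abbreviation: GI50, concentration required for 50% inhibition of growth. Definition used: TGI = concentration required for complete inhibition of growth.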

Experiments:
Test in all cases: NCI tumour cell line growth inhibition, 48 h
[1] = test system: 786-0 renal
[2] = test system: A498 renal
[3] = test system: A549 NSCLC
[4] = test system: ACHN renal
[5] = test system: BT-549 breast
[6] = test system: CAKI-1 renal
[7] = test system: CCRF-CEM leukemia
[8] = test system: COLO 205 colon
[9] = test system: DU-145 prostate
[10] = test system: EKVX NSCLC
[11] = test system: HCC-2998 colon
[12] = test system: HCT-116 colon
[13] = test system: HCT-15 colon
[14] = test system: HL-60(TB) leukemia
[15] = test system: HOP-62 NSCLC
[16] = test system: HOP-92 NSCLC
[17] = test system: HS 578T breast
[18] = test system: HT29 colon
[19] = test system: IGROV1 ovarian
[20] = test system: K-562 leukemia
[21] = test system: KM12 colon
[22] = test system: LOX IMVI melanoma
[23] = test system: M14 melanoma
[24] = test system: MALME-3M melanoma
[25] = test system: MCF7 breast
[26] = test system: MDA-MB-231 breast
[27] = test system: MDA-MB-435
[28] = test system: MOLT-4 leukemia
[29] = test system: NCI-H226 lung
[30] = test system: NCI-H23 lung
[31] = test system: NCI-H460 lung
[32] = test system: NCI-H522 lung
[33] = test system: NCI/ADR-RES ovarian
[34] = test system: OVCAR-3 ovarian
[35] = test system: OVCAR-4 ovarian
[36] = test system: OVCAR-5 ovarian
[37] = test system: OVCAR-8 ovarian
[38] = test system: PC-3 prostate
[39] = test system: RPMI-8226 leukemia
[40] = test system: RXF 393 renal
[41] = test system: SF-268 CNS
[42] = test system: SF-295 CNS
[43] = test system: SF-539 CNS
[44] = test system: SK-MEL-2 melanoma
[45] = test system: SK-MEL-28 melanoma
[46] = test system: SK-MEL-5 melanoma
[47] = test system: SK-OV-3 ovarian
[48] = test system: SN12C renal
[49] = test system: SNB-19 CNS
[50] = test system: SNB-75 CNS
[51] = test system: SR leukemia
[52] = test system: SW-620 colon
[53] = test system: T-47D breast
[54] = test system: TK-10 renal
[55] = test system: U251 CNS
[56] = test system: UACC-257 melanoma
[57] = test system: UACC-62 melanoma
[58] = test system: UO-31 renal

In the case of `C[C@@H]1COCCN1c1nc(-c2cnc(N)cc2C(F)F)nc(N2[C@H](C)COC[C@@H]2C)n1`, the GI50 [1] is reported as 272 nM, the TGI [1] is reported as 12.5 µM and the GI50 [2] is reported as 50.7 nM. The TGI [2] was 345 nM, the GI50 [3] was 235 nM and the TGI [3] was 12.1 µM. The GI50 [4] was 265 nM, the TGI [4] was 11.8 µM and the GI50 [5] was 144 nM. For the same molecule, the TGI [5] was 1750 nM, the GI50 [6] was 190 nM and the TGI [6] was 11.4 µM. The GI50 [7] was 431 nM, the TGI [7] was 21.2 µM and the GI50 [8] was 371 nM. For the same molecule, the TGI [8] was 12.5 µM, the GI50 [9] was 336 nM and the TGI [9] was 14.5 µM. The GI50 [10] was 210 nM, the TGI [10] was 5.77 µM and the GI50 [11] was 310 nM. The TGI [11] was 12.2 µM, the GI50 [12] was 485 nM and the TGI [12] was 14.5 µM. The GI50 [13] was 236 nM, the TGI [13] was 12.4 µM and the GI50 [14] was 863 nM. It also gave a TGI [14] of 19.5 µM, a GI50 [15] of 332 nM and a TGI [15] of 13.2 µM. The GI50 [16] was 90 nM, the TGI [16] was 1140 nM and the GI50 [17] was 128 nM. For the same molecule, the TGI [17] was 611 nM, the GI50 [18] was 349 nM and the TGI [18] was 12.9 µM. For the same molecule, the GI50 [19] was 84.5 nM, the TGI [19] was 1770 nM and the GI50 [20] was 379 nM. The TGI [20] was 17.4 µM, the GI50 [21] was 423 nM and the TGI [21] was 13.8 µM. For the same molecule, the GI50 [22] was 206 nM, the TGI [22] was 11.3 µM and the GI50 [23] was 300 nM. For the same molecule, the TGI [23] was 11.7 µM, the GI50 [24] was 87.5 nM and the TGI [24] was 867 nM. It also gave a GI50 [25] of 115 nM, a TGI [25] of 11.4 µM and a GI50 [26] of 412 nM. The TGI [26] was 20.8 µM, the GI50 [27] was 321 nM and the TGI [27] was 10.6 µM. For the same molecule, the GI50 [28] was 295 nM, the TGI [28] was 9.15 µM and the GI50 [29] was 200 nM. For the same molecule, the TGI [29] was 11.2 µM, the GI50 [30] was 267 nM and the TGI [30] was 15.7 µM. It also gave a GI50 [31] of 179 nM, a TGI [31] of 12.1 µM and a GI50 [32] of 267 nM. The TGI [32] was 12.8 µM, the GI50 [33] was 400 nM and the TGI [33] was 15.1 µM. It also gave a GI50 [34] of 293 nM, a TGI [34] of 12.7 µM and a GI50 [35] of 278 nM. It also gave a TGI [35] of 11.9 µM, a GI50 [36] of 392 nM and a TGI [36] of 16.5 µM. It also gave a GI50 [37] of 367 nM, a TGI [37] of 21.4 µM and a GI50 [38] of 215 nM. For the same molecule, the TGI [38] was 14.4 µM, the GI50 [39] was 174 nM and the TGI [39] was 4.28 µM. For the same molecule, the GI50 [40] was 66.8 nM, the TGI [40] was 485 nM and the GI50 [41] was 356 nM. For the same molecule, the TGI [41] was 16.1 µM, the GI50 [42] was 116 nM and the TGI [42] was 1690 nM. The GI50 [43] was 264 nM, the TGI [43] was 6.66 µM and the GI50 [44] was 382 nM. It also gave a TGI [44] of 7.62 µM, a GI50 [45] of 255 nM and a TGI [45] of 11.7 µM. For the same molecule, the GI50 [46] was 307 nM, the TGI [46] was 2030 nM and the GI50 [47] was 166 nM. For the same molecule, the TGI [47] was 1340 nM, the GI50 [48] was 302 nM and the TGI [48] was 15.9 µM. For the same molecule, the GI50 [49] was 405 nM, the TGI [49] was 14.4 µM and the GI50 [50] was 68.2 nM. The TGI [50] was 571 nM, the GI50 [51] was 189 nM and the TGI [51] was 4.88 µM. It also gave a GI50 [52] of 419 nM, a TGI [52] of 13 µM and a GI50 [53] of 42.2 nM. The TGI [53] was 644 nM, the GI50 [54] was 209 nM and the TGI [54] was 4.51 µM. For the same molecule, the GI50 [55] was 355 nM, the TGI [55] was 13.7 µM and the GI50 [56] was 323 nM. For the same molecule, the TGI [56] was 8.05 µM, the GI50 [57] was 116 nM and the TGI [57] was 2740 nM. For the same molecule, the GI50 [58] was 57.5 nM and the TGI [58] was 11 µM.
